Source: US9012611B2, “Use of 3,8,12,14, 17,20-oxo-substituted pregnene glycosides in the preparation of healthcare products, food additives and pharmaceuticals for the inhibition of appetite” (Institute of Materia Medica, Chinese Academy of Sciences, priority 2010, dated 2015)
Where a name gives a salt, the structure may show the parent alone.

Key:
female Wistar rat = test: Animal test in vivo: average food consumption (appetite inhibition); conditions: positive control 15 mg/kg
Method: (§1) 6-7 weeks-old female Wistar rat (purchased from Shanghai Laboratory Animal Center of Chinese Academy of Sciences)(weight: 110-150 g) was raised alone in suspended metal cage. After the experimental rat was obtained, it was checked to make sure whether they were abnormal or had obvious disease signs. The rat can freely obtain the drinking-water and feed for rodent (RM1(E)AQC). The feeding cage was controlled to receive 12 h illumination (from 07:00 to 19:00) and to be in a dark environment for 12 h, and the room temperature and relative humidity were controlled to be 21±3° C. and 55±15% respectively and not to deviate the upper and lower limit. The rats were randomly divided into groups depending on the body weight according to random number table to make the average weight in each group are approximately equal. Before the test, the rats were pre-trained suitably for one week (from −7th day to −1st day) during which the consumptions of feed and drinking water were recorded.
(§2) Each group of drug to be tested, positive control group, and blank control group consisted of 5 rats, respectively. The tested drug and positive control drug were mixed with wheaten starch before the administration and formulated to suspension with required doses according to 10 mL/kg of administration volume. The positive control drug was sibutramine hydrochloride and the administration dosage was 15 mg/kg body weight. In the blank control group, only equal amount of starch was used to formulate suspension for administration by […] in a same volume. The administration time is the 1st day, 2nd day and 3rd day. The body weight of the rat, the consumption of the feed (the weight of the feeding hopper) and consumption of the drinking water (bottle weight) were recorded from the −7th day to the 7th day.

[1] = Animal test in vivo: average body weight; set-up: species or system rat; conditions: positive control 15 mg/kg
Method: as §1, §2

CC(C)CC(N(C)C)C1(c2ccc(Cl)cc2)CCC1 (centres unmarked) [Positive control, sibutramine hydrochloride, reference compound]
Average food consumptions (female Wistar rat; 1st day (administration day), Table 1, crude extract 300 mg/kg, others 50 mg/kg): 5.0 g | Average food consumptions (female Wistar rat; 1st day (administration day), Table 4, wilfosides 50 mg/kg): 4 g | Average food consumptions (female Wistar rat; 2nd day (administration day), Table 1, crude extract 300 mg/kg, others 50 mg/kg): 8.5 g | Average food consumptions (female Wistar rat; 2nd day (administration day), Table 4, wilfosides 50 mg/kg): 7.6 g | Average food consumptions (female Wistar rat; 3rd day (administration day), Table 1, crude extract 300 mg/kg, others 50 mg/kg): 13.0 g | Average food consumptions (female Wistar rat; 3rd day (administration day), Table 4, wilfosides 50 mg/kg): 8.4 g | Average food consumptions (female Wistar rat; 4th day (after administration on days 1-3), Table 1, crude extract 300 mg/kg, others 50 mg/kg): 14.0 g | Average food consumptions (female Wistar rat; 4th day (after administration on days 1-3), Table 4, wilfosides 50 mg/kg): 10 g | Average food consumptions (female Wistar rat; 5th day (after administration on days 1-3), Table 1, crude extract 300 mg/kg, others 50 mg/kg): 13.5 g | Average food consumptions (female Wistar rat; 5th day (after administration on days 1-3), Table 4, wilfosides 50 mg/kg): 12.8 g | Average food consumptions (female Wistar rat; 6th day (after administration on days 1-3), Table 1, crude extract 300 mg/kg, others 50 mg/kg): 14.5 g | Average food consumptions (female Wistar rat; 6th day (after administration on days 1-3), Table 4, wilfosides 50 mg/kg): 14.4 g | Average food consumptions (female Wistar rat; 7th day (after administration on days 1-3), Table 1, crude extract 300 mg/kg, others 50 mg/kg): 17.5 g | Average food consumptions (female Wistar rat; 7th day (after administration on days 1-3), Table 4, wilfosides 50 mg/kg): 14.8 g | Average food consumptions (female Wistar rat; −1st day (before administration), Table 1, crude extract 300 mg/kg, others 50 mg/kg): 14.5 g | Average food consumptions (female Wistar rat; −1st day (before administration), Table 4, wilfosides 50 mg/kg): 13.2 g | Average food consumptions (female Wistar rat; −2nd day (before administration), Table 1, crude extract 300 mg/kg, others 50 mg/kg): 14.5 g | Average food consumptions (female Wistar rat; −2nd day (before administration), Table 4, wilfosides 50 mg/kg): 16 g | Average food consumptions (female Wistar rat; −3rd day (before administration), Table 1, crude extract 300 mg/kg, others 50 mg/kg): 15.5 g | Average food consumptions (female Wistar rat; −3rd day (before administration), Table 4, wilfosides 50 mg/kg): 12.8 g | Average food consumptions (female Wistar rat; −4th day (before administration), Table 1, crude extract 300 mg/kg, others 50 mg/kg): 14.5 g | Average food consumptions (female Wistar rat; −4th day (before administration), Table 4, wilfosides 50 mg/kg): 12.8 g | Average food consumptions (female Wistar rat; −5th day (before administration), Table 1, crude extract 300 mg/kg, others 50 mg/kg): 14.5 g | Average food consumptions (female Wistar rat; −5th day (before administration), Table 4, wilfosides 50 mg/kg): 14.8 g | Average food consumptions (female Wistar rat; −6th day (before administration), Table 1, crude extract 300 mg/kg, others 50 mg/kg): 15.3 g | Average food consumptions (female Wistar rat; −6th day (before administration), Table 4, wilfosides 50 mg/kg): 10.8 g | Average food consumptions (female Wistar rat; −7th day (before administration), Table 1, crude extract 300 mg/kg, others 50 mg/kg): 11.5 g | Average food consumptions (female Wistar rat; −7th day (before administration), Table 4, wilfosides 50 mg/kg): 10.4 g | Average body weight ([1]; 1st day (administration day), Table 3, crude extract 300 mg/kg, others 50 mg/kg): 142.4 g | Average body weight ([1]; 1st day (administration day), Table 6, wilfosides 50 mg/kg): 133.2 g | Average body weight ([1]; 2nd day (administration day), Table 3, crude extract 300 mg/kg, others 50 mg/kg): 140 g | Average body weight ([1]; 2nd day (administration day), Table 6, wilfosides 50 mg/kg): 128.4 g | Average body weight ([1]; 3rd day (administration day), Table 3, crude extract 300 mg/kg, others 50 mg/kg): 141.6 g | Average body weight ([1]; 3rd day (administration day), Table 6, wilfosides 50 mg/kg): 128.4 g | Average body weight ([1]; 4th day (after administration on days 1-3), Table 3, crude extract 300 mg/kg, others 50 mg/kg): 146.8 g | Average body weight ([1]; 4th day (after administration on days 1-3), Table 6, wilfosides 50 mg/kg): 132.4 g | Average body weight ([1]; 5th day (after administration on days 1-3), Table 3, crude extract 300 mg/kg, others 50 mg/kg): 148.4 g | Average body weight ([1]; 5th day (after administration on days 1-3), Table 6, wilfosides 50 mg/kg): 135.6 g | Average body weight ([1]; 6th day (after administration on days 1-3), Table 3, crude extract 300 mg/kg, others 50 mg/kg): 153.6 g | Average body weight ([1]; 6th day (after administration on days 1-3), Table 6, wilfosides 50 mg/kg): 138.4 g | Average body weight ([1]; 7th day (after administration on days 1-3), Table 3, crude extract 300 mg/kg, others 50 mg/kg): 158.8 g | Average body weight ([1]; 7th day (after administration on days 1-3), Table 6, wilfosides 50 mg/kg): 142 g | Average body weight ([1]; −1st day (before administration), Table 3, crude extract 300 mg/kg, others 50 mg/kg): 154.8 g | Average body weight ([1]; −1st day (before administration), Table 6, wilfosides 50 mg/kg): 145.6 g | Average body weight ([1]; −2nd day (before administration), Table 3, crude extract 300 mg/kg, others 50 mg/kg): 152.8 g | Average body weight ([1]; −2nd day (before administration), Table 6, wilfosides 50 mg/kg): 144.4 g | Average body weight ([1]; −3rd day (before administration), Table 3, crude extract 300 mg/kg, others 50 mg/kg): 152 g | Average body weight ([1]; −3rd day (before administration), Table 6, wilfosides 50 mg/kg): 140.8 g | Average body weight ([1]; −4th day (before administration), Table 3, crude extract 300 mg/kg, others 50 mg/kg): 149.6 g | Average body weight ([1]; −4th day (before administration), Table 6, wilfosides 50 mg/kg): 138 g | Average body weight ([1]; −5th day (before administration), Table 3, crude extract 300 mg/kg, others 50 mg/kg): 145.6 g | Average body weight ([1]; −5th day (before administration), Table 6, wilfosides 50 mg/kg): 135.6 g | Average body weight ([1]; −6th day (before administration), Table 3, crude extract 300 mg/kg, others 50 mg/kg): 144.8 g | Average body weight ([1]; −6th day (before administration), Table 6, wilfosides 50 mg/kg): 132.8 g | Average body weight ([1]; −7th day (before administration), Table 3, crude extract 300 mg/kg, others 50 mg/kg): 140.4 g | Average body weight ([1]; −7th day (before administration), Table 6, wilfosides 50 mg/kg): 132 g
